How the values were obtained:
Experiment in all cases: biochemical
Parameters in all cases: KINOMEscan active-site competition binding, percent of control (100 = no competition)
Conditions in all cases: competition binding, percent control
ADCK4 = biological target: T1, ADCK4 (Homo sapiens, UniProt Q96D53)
T1 construct: gene COQ8B

DAPK1 = DAPK1 (Homo sapiens, UniProt P53355)
DMPK = DMPK (Homo sapiens, UniProt Q09013)
FLT3 = FLT3 (Homo sapiens, UniProt P36888)
HIPK3 = HIPK3 (Homo sapiens, UniProt Q9H422)
INSR = INSR (Homo sapiens, UniProt P06213)
ITK = ITK (Homo sapiens, UniProt Q08881)
JNK2 = biological target: T2, JNK2 (Homo sapiens, UniProt P45984)
T2 construct: gene MAPK9

KIT(V559D,T670I) = KIT(V559D,T670I) (Homo sapiens, UniProt P10721, T670I/V559D)
MET(M1250T) = MET(M1250T) (Homo sapiens, UniProt P08581, M1250T)
NLK = NLK (Homo sapiens, UniProt Q9UBE8)
PDPK1 = PDPK1 (Homo sapiens, UniProt O15530)
PIP5K1A = PIP5K1A (Homo sapiens, UniProt Q99755)
PLK1 = PLK1 (Homo sapiens, UniProt P53350)
PRKCH = PRKCH (Homo sapiens, UniProt P24723)
PRKG2 = PRKG2 (Homo sapiens, UniProt Q13237)
QSK = biological target: T3, QSK (Homo sapiens, UniProt Q9Y2K2)
T3 construct: gene SIK3

RIPK4 = RIPK4 (Homo sapiens, UniProt P57078)
SRPK3 = SRPK3 (Homo sapiens, UniProt Q9UPE1)
TNNI3K = TNNI3K (Homo sapiens, UniProt Q59H18)
VEGFR2 = biological target: T4, VEGFR2 (Homo sapiens, UniProt P35968)
T4 construct: gene KDR

YSK4 = biological target: T5, YSK4 (Homo sapiens, UniProt Q56UN5)
T5 construct: gene MAP3K19

ZAP70 = ZAP70 (Homo sapiens, UniProt P43403)

MET(M1250T), sequence (P08581 whole entry M1250T): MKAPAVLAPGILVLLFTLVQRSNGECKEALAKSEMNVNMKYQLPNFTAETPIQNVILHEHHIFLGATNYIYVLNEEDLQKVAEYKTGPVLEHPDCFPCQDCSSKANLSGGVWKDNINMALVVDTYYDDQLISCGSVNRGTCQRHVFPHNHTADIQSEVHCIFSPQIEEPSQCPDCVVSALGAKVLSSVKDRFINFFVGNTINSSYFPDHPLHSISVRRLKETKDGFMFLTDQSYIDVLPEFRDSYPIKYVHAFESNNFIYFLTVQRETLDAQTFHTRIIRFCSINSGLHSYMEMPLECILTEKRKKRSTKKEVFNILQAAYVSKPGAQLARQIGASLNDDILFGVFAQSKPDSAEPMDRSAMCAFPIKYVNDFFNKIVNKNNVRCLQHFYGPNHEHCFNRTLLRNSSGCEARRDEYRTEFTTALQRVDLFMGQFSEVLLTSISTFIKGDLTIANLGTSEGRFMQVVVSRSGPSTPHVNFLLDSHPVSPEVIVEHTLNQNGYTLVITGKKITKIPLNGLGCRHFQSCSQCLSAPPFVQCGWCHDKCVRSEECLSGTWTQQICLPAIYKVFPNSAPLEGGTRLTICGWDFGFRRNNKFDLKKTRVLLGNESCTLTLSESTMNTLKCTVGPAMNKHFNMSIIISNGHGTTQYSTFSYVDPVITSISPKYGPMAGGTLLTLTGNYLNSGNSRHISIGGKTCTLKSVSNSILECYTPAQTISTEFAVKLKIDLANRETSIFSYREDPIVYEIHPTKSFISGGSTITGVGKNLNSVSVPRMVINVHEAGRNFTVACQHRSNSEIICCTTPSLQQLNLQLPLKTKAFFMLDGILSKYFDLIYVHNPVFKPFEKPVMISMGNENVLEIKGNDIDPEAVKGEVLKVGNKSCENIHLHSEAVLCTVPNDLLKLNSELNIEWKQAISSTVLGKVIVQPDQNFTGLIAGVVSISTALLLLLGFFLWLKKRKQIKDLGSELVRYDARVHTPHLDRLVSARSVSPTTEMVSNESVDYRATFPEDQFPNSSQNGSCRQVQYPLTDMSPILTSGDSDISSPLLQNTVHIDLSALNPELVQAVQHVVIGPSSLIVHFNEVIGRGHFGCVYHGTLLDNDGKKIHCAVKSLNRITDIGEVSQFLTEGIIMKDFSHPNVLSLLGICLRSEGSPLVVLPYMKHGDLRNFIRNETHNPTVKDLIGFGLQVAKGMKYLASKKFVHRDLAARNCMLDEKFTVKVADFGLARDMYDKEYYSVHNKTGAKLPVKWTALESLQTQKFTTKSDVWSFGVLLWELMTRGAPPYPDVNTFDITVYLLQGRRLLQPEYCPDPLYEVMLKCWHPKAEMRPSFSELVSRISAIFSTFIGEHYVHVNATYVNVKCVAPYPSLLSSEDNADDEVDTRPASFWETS
T2 sequence (P45984 whole entry): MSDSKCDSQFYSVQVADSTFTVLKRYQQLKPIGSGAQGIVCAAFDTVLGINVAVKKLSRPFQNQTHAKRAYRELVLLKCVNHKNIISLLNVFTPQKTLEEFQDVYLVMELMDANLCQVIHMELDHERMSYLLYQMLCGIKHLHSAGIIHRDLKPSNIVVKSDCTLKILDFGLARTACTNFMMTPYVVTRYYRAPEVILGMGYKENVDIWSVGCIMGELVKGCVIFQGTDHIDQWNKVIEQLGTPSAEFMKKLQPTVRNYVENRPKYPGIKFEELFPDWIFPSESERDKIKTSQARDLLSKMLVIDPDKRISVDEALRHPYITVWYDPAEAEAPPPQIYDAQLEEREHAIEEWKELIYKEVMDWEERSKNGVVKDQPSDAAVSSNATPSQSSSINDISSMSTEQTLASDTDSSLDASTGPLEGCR
T4 sequence (P35968 whole entry): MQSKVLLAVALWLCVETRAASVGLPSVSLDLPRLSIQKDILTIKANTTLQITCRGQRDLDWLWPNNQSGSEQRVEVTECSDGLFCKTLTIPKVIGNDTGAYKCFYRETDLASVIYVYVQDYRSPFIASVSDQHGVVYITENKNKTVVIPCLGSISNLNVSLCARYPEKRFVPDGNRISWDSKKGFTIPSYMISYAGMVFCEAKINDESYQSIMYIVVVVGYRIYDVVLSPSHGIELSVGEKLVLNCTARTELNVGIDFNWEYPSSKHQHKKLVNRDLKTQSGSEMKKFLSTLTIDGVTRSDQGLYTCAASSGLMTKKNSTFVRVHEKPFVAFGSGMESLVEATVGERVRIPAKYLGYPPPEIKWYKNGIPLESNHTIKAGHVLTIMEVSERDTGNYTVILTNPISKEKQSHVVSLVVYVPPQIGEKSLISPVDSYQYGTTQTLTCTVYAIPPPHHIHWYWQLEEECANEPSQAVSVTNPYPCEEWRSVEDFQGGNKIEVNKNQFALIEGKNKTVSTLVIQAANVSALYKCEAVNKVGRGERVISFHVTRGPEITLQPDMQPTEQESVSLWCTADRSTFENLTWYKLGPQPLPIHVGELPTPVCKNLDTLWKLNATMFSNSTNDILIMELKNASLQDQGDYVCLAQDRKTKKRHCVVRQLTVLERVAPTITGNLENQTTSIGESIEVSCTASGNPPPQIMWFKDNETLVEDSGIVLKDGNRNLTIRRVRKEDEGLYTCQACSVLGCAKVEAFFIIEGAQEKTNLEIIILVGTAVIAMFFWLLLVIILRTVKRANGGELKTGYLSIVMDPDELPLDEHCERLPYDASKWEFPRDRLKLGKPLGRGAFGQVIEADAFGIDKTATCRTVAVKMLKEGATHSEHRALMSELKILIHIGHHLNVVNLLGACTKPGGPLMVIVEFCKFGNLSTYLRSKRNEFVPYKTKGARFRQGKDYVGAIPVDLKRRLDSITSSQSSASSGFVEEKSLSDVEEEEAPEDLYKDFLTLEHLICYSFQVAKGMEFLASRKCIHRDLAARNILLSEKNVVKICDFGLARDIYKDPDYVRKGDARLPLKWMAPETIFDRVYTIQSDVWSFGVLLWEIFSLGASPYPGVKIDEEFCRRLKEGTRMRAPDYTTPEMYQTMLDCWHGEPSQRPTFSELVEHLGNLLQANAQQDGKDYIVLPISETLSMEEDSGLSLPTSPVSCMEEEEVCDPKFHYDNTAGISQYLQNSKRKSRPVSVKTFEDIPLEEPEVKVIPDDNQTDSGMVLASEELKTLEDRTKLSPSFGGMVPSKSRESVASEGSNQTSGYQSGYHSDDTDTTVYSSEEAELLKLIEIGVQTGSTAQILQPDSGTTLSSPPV
FLT3, sequence (P36888 whole entry): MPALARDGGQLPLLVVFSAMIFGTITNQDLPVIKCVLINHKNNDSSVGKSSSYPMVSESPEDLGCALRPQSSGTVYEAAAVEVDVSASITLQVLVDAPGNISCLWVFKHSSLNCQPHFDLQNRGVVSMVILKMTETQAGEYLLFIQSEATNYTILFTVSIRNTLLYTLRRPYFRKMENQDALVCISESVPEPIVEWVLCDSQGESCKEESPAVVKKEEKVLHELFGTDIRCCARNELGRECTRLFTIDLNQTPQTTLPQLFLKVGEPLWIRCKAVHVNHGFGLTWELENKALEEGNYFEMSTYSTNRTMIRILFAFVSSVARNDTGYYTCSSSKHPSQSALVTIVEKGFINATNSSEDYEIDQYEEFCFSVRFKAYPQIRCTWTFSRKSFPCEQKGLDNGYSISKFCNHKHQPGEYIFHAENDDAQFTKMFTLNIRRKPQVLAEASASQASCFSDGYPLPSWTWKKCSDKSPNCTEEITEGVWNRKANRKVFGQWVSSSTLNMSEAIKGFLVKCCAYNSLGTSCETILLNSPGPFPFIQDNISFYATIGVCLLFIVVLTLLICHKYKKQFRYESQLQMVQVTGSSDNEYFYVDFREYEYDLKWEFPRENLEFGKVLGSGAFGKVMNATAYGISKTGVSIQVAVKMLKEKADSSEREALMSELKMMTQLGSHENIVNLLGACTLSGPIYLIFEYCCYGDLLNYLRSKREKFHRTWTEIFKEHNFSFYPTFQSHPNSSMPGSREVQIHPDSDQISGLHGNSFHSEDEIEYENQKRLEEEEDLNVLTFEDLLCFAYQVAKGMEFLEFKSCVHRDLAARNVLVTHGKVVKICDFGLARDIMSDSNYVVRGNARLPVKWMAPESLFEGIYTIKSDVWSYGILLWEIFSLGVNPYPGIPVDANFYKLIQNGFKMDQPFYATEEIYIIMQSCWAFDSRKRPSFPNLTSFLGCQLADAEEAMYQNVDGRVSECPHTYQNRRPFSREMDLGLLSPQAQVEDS
PLK1, sequence (P53350 whole entry): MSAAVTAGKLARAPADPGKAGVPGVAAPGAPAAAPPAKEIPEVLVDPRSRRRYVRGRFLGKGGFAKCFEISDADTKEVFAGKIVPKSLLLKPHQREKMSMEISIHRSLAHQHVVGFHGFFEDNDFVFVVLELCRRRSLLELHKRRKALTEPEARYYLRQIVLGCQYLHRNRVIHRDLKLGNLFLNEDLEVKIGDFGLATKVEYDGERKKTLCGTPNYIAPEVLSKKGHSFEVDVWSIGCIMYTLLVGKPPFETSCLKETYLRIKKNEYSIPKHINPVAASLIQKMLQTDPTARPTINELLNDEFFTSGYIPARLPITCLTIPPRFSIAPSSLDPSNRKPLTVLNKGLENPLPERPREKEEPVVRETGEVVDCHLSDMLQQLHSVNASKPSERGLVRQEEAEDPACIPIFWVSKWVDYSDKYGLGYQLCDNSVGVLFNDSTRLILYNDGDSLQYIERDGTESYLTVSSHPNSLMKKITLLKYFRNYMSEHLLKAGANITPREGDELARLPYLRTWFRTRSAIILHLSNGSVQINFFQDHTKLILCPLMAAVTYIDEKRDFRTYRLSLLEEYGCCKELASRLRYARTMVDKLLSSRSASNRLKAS

Row | Structure (SMILES) | remaining binding at 10 µM (ADCK4) | remaining binding at 10 µM (DAPK1) | remaining binding at 10 µM (DMPK) | remaining binding at 10 µM (FLT3) | remaining binding at 10 µM (HIPK3) | remaining binding at 10 µM (INSR) | remaining binding at 10 µM (ITK) | remaining binding at 10 µM (JNK2) | remaining binding at 10 µM (KIT(V559D,T670I)) | remaining binding at 10 µM (MET(M1250T)) | remaining binding at 10 µM (NLK) | remaining binding at 10 µM (PDPK1) | remaining binding at 10 µM (PIP5K1A) | remaining binding at 10 µM (PLK1) | remaining binding at 10 µM (PRKCH) | remaining binding at 10 µM (PRKG2) | remaining binding at 10 µM (QSK) | remaining binding at 10 µM (RIPK4) | remaining binding at 10 µM (SRPK3) | remaining binding at 10 µM (TNNI3K) | other results
1 | COc1ccc(-c2cnccc2-c2cnc(NC(=O)C(C)C)s2)c(C(F)(F)F)c1 [CRT0105446, N-{5-[3-(4-Methoxy-2-trifluoromethyl-phenyl)-pyridin-4-yl]-hiazol-2-yl}-isobutyramide] | 85% | 100% | 100% | 41% | 98% | 100% | 100% | 50% | 74% | 93% | 57% | 100% | 100% | 100% | 100% | 100% | 100% | 100% | 93% | 93% | remaining binding at 10 µM (VEGFR2): 73%; remaining binding at 10 µM (YSK4): 90%; remaining binding at 10 µM (ZAP70): 86%
2 | Cc1ccc(-c2cnccc2-c2cnc(Nc3ccc(O)cc3)s2)c(Cl)c1 [CRT0105950, 4-{5-[3-(2-Chloro-4-methyl-phenyl)-pyridin-4-yl]-thiazol-2-ylamino}-phenol] | 58% | 82% | 100% | 0.55% | 69% | 1% | 61% | 30% | 36% | 19% | 20% | 28% | 82% | 100% | 49% | 73% | 72% | 99% | 62% | 43% | remaining binding at 10 µM (VEGFR2): 45%; remaining binding at 10 µM (YSK4): 53%; remaining binding at 10 µM (ZAP70): 99%

— publication PMC4770715, “LIM kinase inhibitors disrupt mitotic microtubule organization and impair tumor cell proliferation” (Oncotarget, 2015)
